Marks after values point to notes of the source that are not given here.
How the values were obtained:
[1] = biological target: T1, human recombinant μ-opioid receptor (Homo sapiens, UniProt P35372); test: Ki value at the μ-opioid receptor (Experiment 4); format: binding
T1 construct: expressed in transfected cells; host or cells: CHO-K1 cells (membrane preparation)

male NMRI mice = test: Hypothermia assay in mice (capsaicin-induced hypothermia); format: in vivo, mouse; settings: dosage 3 mg/kg p.o., capsaicin 3 mg/kg i.p.
Protocol: The hypothermia assay was conducted on male NMRI mice (weight 25-35 gram). The animals were kept in standardised conditions: light/dark rhythm (6:00 to 18:00 h light phase, 18:00 to 6:00 h dark phase), room temperature 19-22° C., relative air humidity 35-70%, air exchange 15 times per hour, air movement <0.2 m/sec. The animals received standard feed (ssniff R/M-Haltung, ssniff Spezialdiäten GmbH, Soest, Germany) and tap water. Water and feed were withdrawn during the test. All the animals were used only once in the test. […] The acute application of capsaicin (VR-1 agonist) causes a drop in core body temperature in rats and mice via a stimulation of heat sensors. Only specific active VR-1 receptor antagonists can antagonise capsaicin-induced hypothermia. In contrast, hypothermia induced by morphine is not antagonised by VR-1 antagonists. This model is therefore suitable for identifying substances with VR-1 antagonist properties via the effect on the body temperature.
A digital thermometer (Thermalert TH-5, physitemp, Clifton N.J., USA) is used for measuring the core body temperature. The measurement sensor is inserted into the rectum of the animals in this case. As an individual base value the body temperature is measured twice in each animal at an interval of approximately half an hour. A group of animals (n=6 to 10) then received an intraperitoneal (i.p.) application of capsaicin of 3 mg/kg and vehicle (control group). Another group of animals received the substance to be tested (i.v. or p.o.) and additionally capsaicin (3 mg/kg) i.p. The test substance was applied i.v. 10 min or p.o. 15 minutes before the application of capsaicin. Then, the body temperature was measured 7.5, 15 and 30 min after capsaicin application (i.v.+i.p.) or 15, 30, 60, 90 and 120 min after capsaicin application (p.o.+i.p.). In addition, one animal group was treated only with test substance and one group was treated only with vehicle. The antagonist effect is calculated as a percentage reduction in the capsaicin-induced hypothermia.

[2] = biological target: T2, vanilloid receptor 1 (VR1/TRPV1) (Homo sapiens, UniProt Q8NER1); test: FLIPR capsaicin assay; format: cell-based, human or rat; settings: functional Ki, capsaicin 100 nM, VR1-transfected CHO K1 cells, modified Cheng-Prusoff; read-out: f(Ki) (VR1)
T2 construct: expressed in transfected cells; host or cells: CHO K1 cells (ECACC), stably transfected
T2 sequence (Q8NER1 whole entry): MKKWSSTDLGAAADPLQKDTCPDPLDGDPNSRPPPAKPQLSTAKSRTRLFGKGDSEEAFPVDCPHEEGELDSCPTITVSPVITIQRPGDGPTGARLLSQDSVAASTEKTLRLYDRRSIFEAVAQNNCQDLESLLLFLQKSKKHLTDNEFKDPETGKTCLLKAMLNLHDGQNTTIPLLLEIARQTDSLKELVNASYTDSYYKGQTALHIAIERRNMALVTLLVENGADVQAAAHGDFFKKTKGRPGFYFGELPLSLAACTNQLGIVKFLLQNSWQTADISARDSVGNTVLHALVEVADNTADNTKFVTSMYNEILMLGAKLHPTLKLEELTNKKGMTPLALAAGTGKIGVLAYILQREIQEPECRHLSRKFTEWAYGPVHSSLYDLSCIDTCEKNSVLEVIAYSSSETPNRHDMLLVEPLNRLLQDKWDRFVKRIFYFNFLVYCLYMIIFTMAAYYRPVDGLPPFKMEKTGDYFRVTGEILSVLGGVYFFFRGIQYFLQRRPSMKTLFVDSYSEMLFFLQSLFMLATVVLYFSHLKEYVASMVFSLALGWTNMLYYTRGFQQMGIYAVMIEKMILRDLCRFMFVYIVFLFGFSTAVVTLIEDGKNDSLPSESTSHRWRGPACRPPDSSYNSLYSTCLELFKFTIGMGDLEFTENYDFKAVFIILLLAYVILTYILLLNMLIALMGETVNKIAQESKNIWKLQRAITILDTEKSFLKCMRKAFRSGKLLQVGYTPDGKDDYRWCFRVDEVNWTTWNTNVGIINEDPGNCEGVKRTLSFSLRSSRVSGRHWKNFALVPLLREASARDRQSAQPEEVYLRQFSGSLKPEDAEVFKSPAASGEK
From the text: (§1) The agonist or antagonist effect of substances can be determined at the vanilloid receptor 1 (VR1/TRPV1) of the human and rat species with the assay described below. Accordingly, the Ca^2+ influx through the channel is quantified by means of a Ca^2+-sensitive dye (Fluo-4, Molecular Probes Europe BV, Leiden, The Netherlands) in the fluorescent imaging plate reader (FLIPR, Molecular Devices, Sunnyvale, USA).
(§2) Chinese hamster ovary cells (CHO K1 cells, ECACC, England) are stably transfected with human or rat VR1 cDNA. For functional studies these cells are plated onto poly-D-lysine-coated black 96-hole plates with a clear base (BD Biosciences, Heidelberg, Germany) in a density of 25 000 cells/cavity. The cells are incubated overnight at 37° C. with 5% CO2 in culture medium (nutrient mixture Ham's F12, Gibco Invitrogen GmbH, Karlsruhe, Germany) with 10% vol. FBS (foetal bovine serum, Gibco Invitrogen GmbH, Karlsruhe, Germany) and 18 μg/ml of L-proline (Gibco Invitrogen GmbH, Karlsruhe, Germany). On the following day, the cells are laden with 2 μM Fluo-4 and 0.01% vol. Pluronic F127 (Molecular Probes Europe BV, Leiden, The Netherlands) in HBSS buffer (Hank's buffered saline solution, Gibco Invitrogen GmbH, Karlsruhe, Germany) for 30 min at 37° C. The plates are then washed 3 times in HBSS buffer and after further incubation for 15 minutes at room temperature are placed in the FLIPR for the Ca^2+ measurement. In this case, the Ca^2+-dependent fluorescence is measured before and after the addition of substances (λex=488 nm, λem=540 nm). Quantification occurs as a result of the measurement of the highest fluorescence intensity (FC, fluorescence counts) over time.
The FLIPR protocol consists of 2 substance additions. Test substances (10 μM) are firstly pipetted onto the cells and the Ca^2+ influx is compared to the control (capsaicin 10 μM). This gives the specification in % activation in relation to the Ca^2+ signal after adding 10 μM of capsaicin. After 5 minutes incubation 100 nM of capsaicin are applied and the influx of Ca^2+ likewise determined. Desensitising agonists and antagonists lead to a suppression of the Ca^2+ influx. Inhibition values [%] are calculated in comparison to the maximum achievable inhibition with a saturating concentration of […] or another reference antagonist. The test substance is added in different concentrations to determine the IC50 and functional Ki value ((f)Ki). Triple determinations (n=3) are conducted and these are repeated in at least one further independent experiment (N>=2). A capsaicin dose action curve is generated to incorporate the thus determined EC50 values into the associated (f)Ki determination. EC50/IC50 values are calculated using ‘Prism4’ software from GraphPad Software™ or with XLfit4™ (ID Business Solutions Ltd.). (f)Ki values are calculated in accordance with the modified Cheng-Prusoff equation (Cheng, Prusoff; Biochem. Pharmacol. 22, 3099-3108, 1973). Testing for non-specific inhibition of the fluorescence as a result of the substances is conducted by activating wild type CHO K1 cells incubated with the same test substances with ATP (10 μM final concentration).

human VR1 = biological target: T3, human VR1 (Homo sapiens, UniProt Q8NER1); test: FLIPR pH assay; format: cell-based
T3 construct: expressed in transfected cells; host or cells: CHO K1 cells (ECACC), stably transfected
T3 sequence (Q8NER1 whole entry): as above
From the text: as §1, §2
In the pH assay, HBSS that now contains 60 mM MES instead of capsaicin is applied to human VR1-transfected CHO K1 cells (adjusted pH value of the addition solution is 4.95). Percentage inhibition and IC50 values are raised and evaluated as already described for the capsaicin test.

rats = test: Tail-flick (hot beam) test in rats; format: in vivo, rat; settings: dosage 30 mg/kg i.v.
Protocol: Sprague Dawley rats (140-160 g body weight) were used for the following animal models. Sprague Dawley rats (140-160 g body weight) from a commercial breeder (Janvier, Genest St. Isle, France) were used. The animals were kept under standard conditions: light-dark rhythm (06:00 to 18:00 h light, 18:00 to 06:00 h dark), room temperature 19-23° C., relative air humidity 45-65%, air exchange 19 times per hour, air movement <0.2 m/s, free choice of tap water and standard feed, Macrolon Type 4 cages with 5 animals per cage. The solutions of the test substances and/or vehicles (10% […], 5% Cremophor EL, 5% glucose) were administered intravenously.
The analgesic efficacy of the test compounds was examined in the hot beam (tail flick) test in rats using the method of D'Amour and Smith (J. Pharm. Exp. Ther. 1941, 72, 74-79). The time from switching on the lamp (8V/50 W) to the sudden flicking away of the tail from the hot beam (pain latency) was measured by means of a semiautomatic apparatus (tail-flick Analgesiemeter Type 50/08/1.bc, Labtec, Dr. Hess, Germany). The lamp intensity was adjusted before conducting the experiments so that the time from switching on the lamp to the sudden flicking away of the tail (pain latency) amounted to 3-5 seconds in untreated animals. The lamp was automatically switched off after 12 seconds to avoid tissue damage to the rat's tail. The pain latency was measured 10, 20, 40 and 60 min after intravenous administration. The analgesic effect was determined as increase in pain latency (% MPE) according to the following formula: […]
In this case, T0 is the latency time before and T1 the latency time after substance application, T2 is the maximum exposure time (12 sec). Results of the analgesia study in the tail-flick test in rats:
The following experiments of Example 2 relate to binding studies and the analgesic efficacy of the compounds with dual mode of action according to the invention. The experiments comprise the determination of the (f)Ki value at the TPRV1 receptor, the Ki value at the μ-opioid receptor and the hypothermia assay in mice. The tail-flick test for the compounds [1], [4], [7] and [10] according to the invention was conducted in a similar manner to the above-described method (cf. Example 1, experiment 1).

T1 sequence (P35372 whole entry): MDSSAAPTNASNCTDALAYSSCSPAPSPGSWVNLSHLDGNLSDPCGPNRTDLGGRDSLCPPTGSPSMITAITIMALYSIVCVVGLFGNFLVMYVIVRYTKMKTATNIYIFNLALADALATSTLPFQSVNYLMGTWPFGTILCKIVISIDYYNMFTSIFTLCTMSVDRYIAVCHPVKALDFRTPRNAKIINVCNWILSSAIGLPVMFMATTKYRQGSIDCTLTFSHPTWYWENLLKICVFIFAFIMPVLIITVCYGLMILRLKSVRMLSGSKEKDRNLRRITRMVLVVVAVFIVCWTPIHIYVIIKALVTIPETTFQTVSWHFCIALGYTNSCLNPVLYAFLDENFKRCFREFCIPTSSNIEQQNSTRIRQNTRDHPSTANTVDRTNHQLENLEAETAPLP

Question: Which Ki [1] does the source give for CC(C(=O)NCc1ccc(C(F)(F)F)cc1N1CCC(Cc2cccc(F)c2)(N(C)C)CC1)c1ccc(NS(C)(=O)=O)c(F)c1 (centres unmarked) [[10], N-(2-(4-(dimethylamino)-4-(3-fluorobenzyl)piperidin-1-yl)-4-(trifluoromethyl)benzyl)-2-(3-fluoro-4-(methylsulfonamido)phenyl)propanamide] here?
Answer: 79 nM

Question: What about the “Hypothermia Assay [% Inhibition]” value (male NMRI mice) of the same compound?
Answer: 29%^1)

Question: What about the Ki [2] of the same compound?
Answer: 1.4 nM

Question: And the IC50 (human VR1)?
Answer: 137 nM

Question: How did the Ki [1] turn out when CC(C(=O)NCc1ccc(C(F)(F)F)cc1N1CCC(c2cccs2)(N(C)C)CC1)c1ccc(NS(C)(=O)=O)c(F)c1 (centres unmarked) [[4], N-(2-(4-(dimethylamino)-4-(thiophen-2-yl)piperidin-1-yl)-4-(trifluoromethyl)benzyl)-2-(3-fluoro-4-(methylsulfonamido)phenyl)propanamide] was run?
Answer: 61 nM

Question: What about the “Hypothermia Assay [% Inhibition]” value (male NMRI mice) of the same compound?
Answer: 4%^1)

Question: And the Ki [2]?
Answer: 5 nM

Question: And the “Tail-Flick [% MPE]” value (rats)?
Answer: n.e.^3), 37%^4) % MPE

Question: What about the IC50 (human VR1) of the same compound?
Answer: 776 nM

Question: How did the Ki [1] turn out when CC(C(=O)NCc1ccc(C(F)(F)F)cc1N1CCC(Cc2ccccc2)(N(C)C)CC1)c1ccc(NS(C)(=O)=O)c(F)c1 (centres unmarked) [[7], N-(2-(4-benzyl-4-(dimethylamino)piperidin-1-yl)-4-(trifluoromethyl)benzyl)-2-(3-fluoro-4-(methylsulfonamido)phenyl)propanamide] was run?
Answer: 24 nM

Question: And the “Hypothermia Assay [% Inhibition]” value (male NMRI mice)?
Answer: 59%^1)

Question: What about the Ki [2] of the same compound?
Answer: 2.8 nM

Question: What about the “Tail-Flick [% MPE]” value (rats) of the same compound?
Answer: n.e.^3), 100%^4) % MPE

Question: And the IC50 (human VR1)?
Answer: 434 nM

— patent publication US20090286831A1, “VR1 Receptor Ligands and u-Opioid Receptor Ligands for the Treatment of Pain” (priority 2006, published 2009)
